Experimental data reported in patent US20220041681A1 (MEDIMMUNE LIMITED, priority 2016, published 2022).

Columns and labels:
human serum albumin = human serum albumin (Homo sapiens, UniProt P02768); experiment: Fraction of free peptide calculated from variation in cAMP generation with HSA concentration; conditions: human
Source text: Data was transformed to % Delta F as described in manufacturer's guidelines and analysed by 4-parameter logistic fit to determine EC50 values. […] To compare the balance of activities at the GLP1R and GlucR between different peptides and across different conditions, these can be correlated using the calculation below, where the EC50's are related to those of the natural ligands.

[1] = system: diet induced obesity (DIO) mouse model; experiment: Diet induced obesity (DIO) mouse model, study B; format: in vivo; conditions: for FGF 21 / HOMA / Hepatic TG / Plasma Cholesterol / Plasma NEFA / Plasma TG: day 14; for Glucose / Insulin: day 14, 4-hour fasting
Procedure: The body weight of the animals was monitored daily throughout the dosing period. At day 14, blood samples for the measurement of plasma glucose and insulin from conscious mice were obtained after a 4-hour fasting period. Mice were then anaesthetized using isoflourane and terminal blood was collected from the capillary bed behind the eye. The following parameters were measured: blood chemistry measurements of triglycerides, total cholesterol, non-esterified fatty acids (NEFA), beta-hydroxybutyrate and fibroblast growth factor 21 (FGF21) (Table 16 and Table 17 below).

[2] = system: overweight or obese subjects with type 2 diabetes mellitus (T2DM); conditions: human, in vivo
Procedure: (§1) A Phase 1/2, randomized, double-blind, multiple-ascending dose study is performed in two parts (A and B).
Part A consists of 3 cohorts.
Part B consists of 1 cohort.
(§2) The initial dose is 100 μg. […] The study duration for each subject varies by cohort and consists of an inpatient multiple-ascending dose (MAD) or up-titration evaluation period (beginning on Day −2 and ending after Day 8 for Cohort 1, Day 12 for Cohort 2, Day 16 for Cohort 3, and Day 13 for Cohort 4) and an outpatient follow-up period.
(§3) The subject remains in the facility for observation and safety tests including ECGs, telemetry, monitoring of vital signs, and assessments of the injection site for potential reactions throughout the day and during the treatment period.
(§4) Mixed-meal test (MMT) procedures are performed on Day −1 and on the last day of the highest dose level achieved for all cohorts. […] For the MMT, the subject consumes a standardized meal (Ensure Plus %) within 5 minutes, and timed serial blood samples are obtained for measurement of glucose and parameters related to glucose metabolism just before and through 240 minutes after consumption of the standandized meal. During the inpatient period, finger prick glucose samples are collected 15 minutes prior to and 2 hours after breakfast, mid-day, and evening meals, and prior to going to bed.
(§5) Cohort 4 subjects are re-admitted for an overnight inpatient stay at the end of the at-home self-administration period to collect the final endpoints.
(§6) Subjects are discharged from the unit the day after the final dose is administered in the study.
(§7) Missing measurements at the end of treatment are replaced with the last available measurement. The comparison is conducted at a two-sided significance level of 0.1.

[3] = Phase 1 single-ascending dose study; conditions: human, plasma, subcutaneous, 300 μg
[4] = system: overweight or obese subjects with type 2 diabetes mellitus (T2DM); experiment: Phase 1/2 multiple-ascending dose study Part I (Cohorts 1-4)
Procedure: as §1
Part A consists of 3 cohorts.
Part B consists of 1 cohort.
as §2, §3, §4, §5, §6, §7

[5] = Cohort 4, 200 ug, n = 25 active

human serum albumin, sequence (P02768 25-609): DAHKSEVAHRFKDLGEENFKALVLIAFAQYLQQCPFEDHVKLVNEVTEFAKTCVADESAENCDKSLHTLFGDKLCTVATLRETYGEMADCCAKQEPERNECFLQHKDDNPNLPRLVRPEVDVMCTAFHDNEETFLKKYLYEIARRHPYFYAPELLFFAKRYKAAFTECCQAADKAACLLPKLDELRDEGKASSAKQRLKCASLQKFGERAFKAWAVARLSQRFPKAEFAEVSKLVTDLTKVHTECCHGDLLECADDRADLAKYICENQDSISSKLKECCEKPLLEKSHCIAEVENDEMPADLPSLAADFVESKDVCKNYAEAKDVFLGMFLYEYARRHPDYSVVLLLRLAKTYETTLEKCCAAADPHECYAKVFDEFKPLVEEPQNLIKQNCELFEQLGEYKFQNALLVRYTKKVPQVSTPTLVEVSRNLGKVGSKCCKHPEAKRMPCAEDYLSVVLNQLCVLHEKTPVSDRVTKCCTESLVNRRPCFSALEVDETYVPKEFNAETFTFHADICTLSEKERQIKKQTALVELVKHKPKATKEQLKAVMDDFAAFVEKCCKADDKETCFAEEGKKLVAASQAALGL

CCCCCCCCCCCCCCCC(=O)N[C@@H](CCC(=O)NCCCC[C@H](NC(=O)[C@H](CC(=O)O)NC(=O)[C@H](CO)NC(=O)C(NC(=O)[C@H](Cc1ccccc1)NC(=O)C(NC(=O)CNC(=O)[C@H](CCC(N)=O)NC(=O)[C@H](CO)NC(=O)[C@@H](N)Cc1cnc[nH]1)[C@@H](C)O)[C@@H](C)O)C(=O)N[C@@H](CO)C(=O)N[C@@H](CCC(=O)O)C(=O)N[C@@H](Cc1ccc(O)cc1)C(=O)N[C@@H](CC(C)C)C(=O)N[C@@H](CC(=O)O)C(=O)N[C@@H](CO)C(=O)N[C@@H](CCC(=O)O)C(=O)N[C@@H](CCCNC(=N)N)C(=O)N[C@@H](C)C(=O)N[C@@H](CCCNC(=N)N)C(=O)N[C@@H](CC(=O)O)C(=O)N[C@@H](Cc1ccccc1)C(=O)N[C@H](C(=O)N[C@@H](C)C(=O)N[C@@H](Cc1c[nH]c2ccccc12)C(=O)N[C@@H](CC(C)C)C(=O)N[C@@H](CCC(=O)O)C(=O)N[C@@H](C)C(=O)NCC(=O)NCC(=O)O)C(C)C)C(=O)O (stereo partly drawn) [Peptide G933]
free peptide at 4.4% HSA (human serum albumin): 0.29%
BW day 14 (% change of vehicle mean) ([1]; 5 nmol/kg sc twice daily for 14 days): −11%
FGF 21 ([1]; 5 nmol/kg sc twice daily): 2682 pg/mL
HOMA ([1]; 5 nmol/kg sc twice daily): 3.31
Hepatic TG ([1]; 5 nmol/kg sc twice daily): 19.3 g TG/100 g tissue
Plasma Cholesterol ([1]; 5 nmol/kg sc twice daily): 2.88 mM
Plasma NEFA ([1]; 5 nmol/kg sc twice daily): 0.28 mM
Plasma TG ([1]; 5 nmol/kg sc twice daily): 0.89 mM
Glucose ([1]; 5 nmol/kg sc twice daily): 6.2 mM
Insulin ([1]; 5 nmol/kg sc twice daily): 0.53 nM
BW day 14 (% change of vehicle mean) ([1]; 10 nmol/kg sc twice daily for 14 days): −19%
FGF 21 ([1]; 10 nmol/kg sc twice daily): 4459 pg/mL
HOMA ([1]; 10 nmol/kg sc twice daily): 1.98
Hepatic TG ([1]; 10 nmol/kg sc twice daily): 14.7 g TG/100 g tissue
Plasma Cholesterol ([1]; 10 nmol/kg sc twice daily): 2.32 mM
Plasma NEFA ([1]; 10 nmol/kg sc twice daily): 0.27 mM
Plasma TG ([1]; 10 nmol/kg sc twice daily): 0.16 mM
Glucose ([1]; 10 nmol/kg sc twice daily): 7.2 mM
Insulin ([1]; 10 nmol/kg sc twice daily): 0.27 nM
body weight over the 14 day dosing period ([1]; study B, in words): dose dependent and continuous weight loss
half-life [2]: 8 to 11 h
AUC(0-t) [3]: 0.364 µg·h/mL
Fasting Glucose (change) ([4]; Cohort 1, 100 ug, n = 6 active): -28.00 mg/dL
Glucose AUG (change) ([4]; Cohort 1, 100 ug, n = 6 active): −27.3
Weight (change) ([4]; Cohort 1, 100 ug, n = 6 active): -1.1 kg
Fasting Glucose (change) ([4]; Cohort 2, 150 ug, n = 6 active): -17.90 mg/dL
Glucose AUG (change) ([4]; Cohort 2, 150 ug, n = 6 active): −8.9
Weight (change) ([4]; Cohort 2, 150 ug, n = 6 active): -0.5 kg
weight differential ([4]; Cohort 3): more than 2 kg
Fasting Glucose (change) ([4]; Cohort 3, 200 ug, n = 6 active): -43.20 mg/dL
Glucose AUG (change) ([4]; Cohort 3, 200 ug, n = 6 active): −31.6
Weight (change) ([4]; Cohort 3, 200 ug, n = 6 active): -2.4 kg
reduction in liver volume compared to placebo ([4]; Cohort 4): 0.14 L
Death (grade 5 severity) ([4]; Cohort 4, 200 μg, N = 25): 0
Subject with at least one G933-related serious event ([4]; Cohort 4, 200 μg, N = 25): 0
Subject with at least one event ([4]; Cohort 4, 200 μg, N = 25): 22 (88.8%)
Subject with at least one event leading to discontinuation of G933 ([4]; Cohort 4, 200 μg, N = 25): 3 (12.0%)
Subject with at least one event of ≥ grade 3 severity ([4]; Cohort 4, 200 μg, N = 25): 0
Subject with at least one serious event ([4]; Cohort 4, 200 μg, N = 25): 0
Fasting Glucose (change) [4, 5]: -31.62 mg/dL
Glucose AUG (change) [4, 5]: −22.5
patients who vomited ([4]; Cohort 4, 8 patients): 32.0%
patients reporting nausea ([4]; Cohort 4, 13 patients): 52.0%
patients who lost at least 2% of their weight ([4]; Cohort 4, 41 days): 84%
patients who lost at least 5 kg ([4]; Cohort 4, 41 days): 44%
percent weight loss difference between G933 and placebo ([4]; Cohort 4, 41 days): 2.47%
weight loss difference between G933 and placebo ([4]; Cohort 4, 41 days): 2.12 kg
increase in heart rate ([4]; Cohort 4, Day 41): 6.9 bpm
percent of weight lost ([4]; Cohort 4, after 41 days): about 4.18%
weight lost ([4]; Cohort 4, after 41 days): about 3.83 kg
HbA1c reduction ([4]; Cohort 4, after 41 days of treatment): 0.92%
mean HbA1c on day 42 ([4]; Cohort 4, baseline mean […]): 6.3%
mean reduction in glucose AUC from baseline (day 1) to day 41 ([4]; Cohort 4, up to 200 μg): 38.5%
patients with vomiting ([4]; Cohorts 1-3 (n=5)): 26%
weight loss ([4]; Cohorts 1-3, dose dependent trend): up to 2 kg
mixed-meal test glucose AUC reduction ([4]; across Cohorts 1-3 (100-200 μg QD)): > 40%
increase in pulse rate ([4]; each of Cohorts 1-3): about 10 bpm
Between-subject variability in Cmax ([4]; larger Cohort 4): 40-50%
anti-G933 antibody ([4]; post baseline, Cohorts 1-3): Only one sample was confirmed positive
Between-subject variability in Cmax ([4]; smaller cohorts, Parts I and II): 20-30%
